The results in this text go back to US20250129028A1, “COMPOUNDS AND METHODS FOR YAP/TEAD MODULATION AND INDICATIONS THEREFOR” (Opna Bio SA, priority 2022, published 2025).

This test concerns TEAD-dependent transcription. The test can be described thus: TEAD-dependent transcription cell-based reporter assay (MSTO-211H+12XGTIIC luciferase). Particulars: Homo sapiens; MSTO-211H+12XGTIIC cell line, luciferase signal normalized to cell viability, 24 hours compound incubation; read-out: MSTO-211H GMean IC50 (uM) Cell Assay Reporter Cell Variant: TEAD. More on the design: species or system human. The gist of the method:
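MSTO-211H mesothelioma cells stably carrying a 12xGTIIC TEAD-response-element luciferase reporter, treated with serial compound dilutions for 24 h at 37 °C. Luminescence normalized to CellTiter-Fluor viability signal; % inhibition versus DMSO and 20 μM K-975 controls, IC50 by nonlinear regression.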
As to `NC(=O)NCCC(=O)N1CCc2ccc(Oc3ccc(C(F)(F)F)cc3)cc2C1` [P-0096, 1-(3-oxo-3-(7-(4-(trifluoromethyl)phen-oxy)-3,4-dihydroisoquin-olin-2(1H)-yl)propyl)urea], the IC50 (as a rule, the point on the concentration scale where inhibition reaches its midpoint) is 0.001 to 10 µM.
To `CN1CC(C(=O)N2CCc3ccc(Oc4ccc(C(F)(F)F)c(F)c4)cc3C2)C1` [P-0097, (7-(3-fluoro-4-(trifluoro-methyl)phenoxy)-3,4-dihydroisoquinolin-2(1H)-yl)(1-methylazet-idin-3-yl)methanone] belongs 0.001 to 10 µM; to `N=C(N)NCC(=O)N1CCc2ccc(Oc3ccc(C(F)(F)F)cc3)cc2C1` [P-0098, 1-(2-oxo-2-(7-(4-(trifluoromethyl)phen-oxy)-3,4-dihydroiso-quinolin-2(1H)-yl)-ethyl)guanidine], 0.001 to 10 µM; to `O=C(Cc1cn[nH]c1)N1CCc2ccc(Oc3ccc(C(F)(F)F)cc3)cc2C1` [P-0099, 2-(1H-pyrazol-4-yl)-1-(7-(4-(trifluoromethyl)phen-oxy)-3,4-dihydroisoquin-olin-2(1H)-yl)ethan-1-one], 10 to 100 µM.
To `O=C(CNC(=O)C(F)(F)F)N1CCc2ccc(Oc3ccc(C(F)(F)F)cc3)cc2C1` [P-0100, 2,2,2-trifluoro-N-(2-oxo-2-(7-(4-(trifluoromethyl)-phenoxy)-3,4-dihydroiso-quinolin-2(1H)-yl)ethyl)-acetamide] belongs 0.001 to 10 µM.
With `CS(=O)(=O)NCCC(=O)N1CCc2ccc(Oc3ccc(C(F)(F)F)cc3)cc2C1` [P-0101, N-(3-oxo-3-(7-(4-(trifluoromethyl)phen-oxy)-3,4-dihydroisoquin-olin-2(1H)-yl)propyl)-methanesulfonamide] the figure was 0.001 to 10 µM.
In the case of `NS(=O)(=O)N1CC(C(=O)N2CCc3ccc(Oc4ccc(C(F)(F)F)cc4)cc3C2)C1` [P-0102, 3-(7-(4-(trifluoromethyl)-phenoxy)-1,2,3,4-tetra-hydroisoquinoline-2-carbonyl)azetidine-1-sulfonamide], the 50% inhibitory concentration (IC50) fell in the range of 0.001 to 10 µM.
With `O=C(c1cc(C(F)F)[nH]n1)N1CCc2ccc(Oc3ccc(C(F)(F)F)cc3)cc2C1` [P-0103, (5-(difluoromethyl)-1H-pyrazol-3-yl)(7-(4-(trifluoromethyl)phen-oxy)-3,4-dihydroisoquin-olin-2(1H)-yl)methanone] the figure was 0.001 to 10 µM.
With `NC(=O)NCC(=O)N1CCc2ccc(Oc3ccc(Cl)cc3)cc2C1` [P-0104, 1-(2-(7-(4-chlorophen-oxy)-3,4-dihydroisoquin-olin-2(1H)-yl)-2-oxoeth-yl)urea] the figure was 0.001 to 10 µM; with `CN1CCC(C(=O)N2CCc3ccc(Oc4ccc(C(F)(F)F)c(F)c4)cc3C2)C1` (centres unmarked) [P-0105, (7-(3-fluoro-4-(trifluoro-methyl)phenoxy)-3,4-dihydroisoquinolin-2(1H)-yl)(1-methylpyr-rolidin-3-yl)methanone], 0.001 to 10 µM; with `N=C(N)NCCC(=O)N1CCc2ccc(Oc3ccc(C(F)(F)F)cc3)cc2C1` [P-0106, 1-(3-oxo-3-(7-(4-(trifluoromethyl)phen-oxy)-3,4-dihydroisoquin-olin-2(1H)-yl)propyl)-guanidine], 0.001 to 10 µM.
To `Nc1nc(C(=O)N2CCc3ccc(Oc4ccc(C(F)(F)F)cc4)cc3C2)c[nH]1` [P-0107, (2-amino-1H-imidazol-4-yl)(7-(4-(trifluoromethyl)-phenoxy)-3,4-dihydroiso-quinolin-2(1H)-yl)meth-anone] belongs 0.001 to 10 µM; to `O=C(c1cocn1)N1CCc2ccc(Oc3ccc(C(F)(F)F)cc3)cc2C1` [P-0108, oxazol-4-yl(7-(4-(trifluoromethyl)phen-oxy)-3,4-dihydroisoquin-olin-2(1H)-yl)methanone], 0.001 to 10 µM; to `CN1CCC(C(=O)N2CCc3ccc(Oc4ccc(C(F)(F)F)c(F)c4)cc3C2)CC1` [P-0109, (7-(3-fluoro-4-(trifluoro-methyl)phenoxy)-3,4-dihydroisoquinolin-2(1H)-yl)(1-methylpiper-idin-4-yl)methanone], 0.001 to 10 µM.
